What was measured:
[1] = test system: modified RNase H containing a single cysteine; test: In vitro intraprotein photo-crosslinking, denaturing SDS-PAGE; type: biochemical; conditions: mercury arc lamp, 310-370 nm
Description: A modified RNase H containing a single cysteine was expressed, purified, alkylated with isoazipropyl chloride and repurified as above.
The alkylated protein was illuminated with a mercury arc lamp through filters selecting for light in the 310-370-nm range.

[2] = test system: GFP; type: cell-based, S. cerevisiae; conditions: 365-nm diode, 1 minute
Description: S. cervisae was made to express GFP containing isoazipropyl chloride or isoazibutyl chloride as described above. These cells were illuminated by a 365-nm diode (a Prizmatix Mic-LED-365 powered by a BLCC-02 at 0.5 ampere) for 1 minute and then cryogenically ground. Their protein was run on a denaturing SDS-PAGE gel to look for higher-molecular weight species resulting from crosslinking between the two GFP monomers (see e.g., FIG. 41).

[3] = test system: modified RNase H containing a single cysteine; test: Chemical anchoring of crosslinker to protein cysteine, Ellman's assay; type: biochemical; conditions: 10 ul crosslinker, 1 hour at 37° C., pH 8.6
Description: A modified RNase H containing a single cysteine was expressed in E. coli and purified and purified by Ni-IMAC and heparin chromatography.
To 2.75 mg of this protein in 20 ml of 100-mM bicine, 1-mM TCEP, 600-mM NaCl, 100-mM KCl, pH 8.6 was added either 0 or 10 ul of isoazipropyl chloride. These mixtures were incubated for 1 hour at 37° C. The proteins were repurified by heparin chromatography to remove TCEP and isoazipropyl chloride, and the number of free cysteines per protein was determined using Ellman's assay.

[4] = target: GST (Schistosoma japonicum, UniProt P08515); test: Photo-crosslinking of aziethyl glutathione to GST, whole-protein LCMS; type: biochemical; conditions: 1 mM, 7 mg/ml GST, 337-nm light, 30 minutes
Sequence of GST (P08515 2-218): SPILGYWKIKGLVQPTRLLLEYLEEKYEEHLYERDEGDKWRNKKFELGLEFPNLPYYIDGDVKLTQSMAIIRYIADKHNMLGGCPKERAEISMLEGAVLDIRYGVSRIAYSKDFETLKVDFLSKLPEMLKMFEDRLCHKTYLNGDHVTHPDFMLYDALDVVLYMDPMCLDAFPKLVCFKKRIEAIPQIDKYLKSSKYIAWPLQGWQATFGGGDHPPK
Description: Aziethyl chloride was anchored to glutathione. 25 mg of glutathione and 5 mg of TCEP were dissolved in 2 ml of methanol, 1 ml of water and 50 ul of TEA. To this were added 41 ul of the aziethyl chloride-alkene mixture synthesized in example 19. The mixture was stirred overnight, lyophilized and resuspended in 2.6 ml of water to make a 30-mM solution. This aziethyl glutathione solution was used without any purification.
7 mg/ml of GST was incubated with 0 or 1 mM of aziethyl glutathione. This mixture was placed beneath 337-nm light source (Laser Science, Inc. VSL-337ND-S) for either 0 or 30 minutes and then subjected to whole-protein LCMS.

[5] = N-tagging of Alexa-350 ADNGK peptide with orthogonal affinity tags, reverse phase HPLC; conditions: 5 mM of each N-tag, 4 hours at 37° C., pH 7.5
Description: A peptide with the sequence ADNGK (SEQ ID NO: 1) was purchased with its N-terminal Fmoc protecting group still in place. This peptide was reacted with NHS-activated fluorophore Alexa-350 (ThermoFisher, A10168) before the Fmoc group was removed using piperidine and the peptide was purified by preparative HPLC.
We treated this peptide with the N-tags form examples 7 and 10, either separately or in combination. This labeling done for 4 hours at 37° C. with 5 mM of each N-tag, 100 mM of sodium phosphate buffered to pH 7.5 and 10% acetonitrile. The resulting species were analyzed by reverse phase HPLC (see, e.g., FIG. 14).

NC(=O)CI [iodoacetamide, reference compound]
appearance of faster-migrating band (intramolecular crosslink) [1]: did not appear

allylcysteine [reference compound]
interprotein crosslinking of the proteins [2]: lack of similar crosslinking

CC1(CCl)N=N1 [isoazipropyl chloride]
free cysteines per protein [3]: 0.15 | protein's cysteines anchored by the crosslinker [3]: 85% | appearance of faster-migrating band (intramolecular crosslink) [1]: new faster-migrating band to appear

aziethyl glutathione
GST molecules shifted as expected from covalent crosslinking [4]: 40%

C[C@@H]1NC(=O)N[C@@H]1CCCCCC(=O)N(C)Cc1cccc(C=O)n1 [compound 10]
labeling of peptide N-termini [5]: efficiently label the peptides

CC1(CCSC[C@H](N)C(=O)O)N=N1 [Isoazibutyl cysteine, isoazibutyl cysteine]
interprotein crosslinking of the proteins [2]: 8%

O=Cc1cccc(C(=O)NO)n1 [hydroxamate affinity tag]
labeling of peptide N-termini [5]: efficiently label the peptides

CC1(CSC[C@H](N)C(=O)O)N=N1 [Isoazipropyl cysteine, isoazipropyl cysteine]
interprotein crosslinking of the proteins [2]: 2%

From patent publication US12472448B2, “Compact hydroxamate-based affinity tags for artificially tagging biological macromolecules” (The Board of Trustees of the Leland Stanford Junior …, priority 2019, dated 2025)
